Source: patent EP0965268B1, “Thermostabilization, osmoprotection, and protection against desiccation of enzymes, cell components and cells by di-glycerol-phosphate” (bitop Aktiengesellschaft für biotechnische Optimierung, priority 1998, dated 1999)

Key:
[1] = biological target: T1, Desulfovibrio gigas rubredoxin (Megalodesulfovibrio gigas, UniProt P00270); assay: Thermal denaturation of rubredoxin, decrease in absorbance at 494 nm at 90°C; type: biochemical; settings: 30 min incubation of rubredoxin at 90 °C, without solute 73%
T1 construct: Rubredoxin was obtained and purified as described by LeGall and Dragoni [15] from Desulfovibrio gigas; made in house; host or cells: Desulfovibrio gigas (natural source, not recombinant)
Protocol: Rubredoxin was obtained and purified as described by LeGall and Dragoni from Desulfovibrio gigas. This protein was then stored at -20°C in 10 mM Tris-HCl buffer at pH 7.6.
The most informative feature of the UV-Vis absorption spectrum of rubredoxins comes from the signals with maxima centered at 380, 494, and 570 nm which are attributed to metal to ligand transitions. These bands are bleached when rubredoxin undergoes de naturation.
In the experiments designed to evaluate denaturation caused by thermal stress, rubredoxin was prepared at a concentration of 84 µg . ml^-1 in 10 mM Tris-HCI buffer pH 7.6 and the incubation mixtures, with or without the additions of solutes, were placed in 400 µl quartz cells in a Beckman spectrophotometer with a thermostated cell compartment. The protein was subjected to a temperature of 90°C and the decrease in the absorbance at 494 nm was monitored as a function of time.
The protective effect of 1,1'-di-glycerol-phosphate (at a concentration of 100 mM) was compared with that of potassium phosphate (100 mM) and glycerol (200 mM) (Figure 4). After 30 min incubation of rubredoxin at 90 °C the absorbance decreased by only 8.5% when 1,1'-di-glycerol-phosphate was present, whereas in the absence of any solute a decrease of 73% was observed. […] In fact, the decreases in absorption are as high as 61 and 58 % in the presence of 200 mM glycerol or 100 mM potassium phosphate, respectively.

[2] = biological target: T2, rabbit muscle lactate dehydrogenase (LDH) (Oryctolagus cuniculus, UniProt P13491); assay: Thermostability of lactate dehydrogenase, residual activity after incubation at 50°C; type: biochemical; settings: 100 mM solute; 10 min of incubation at 50°C; without solute 30%
T2 construct: Lactate dehydrogenase, LDH (Sigma Type III, rabbit muscle), purchased as a suspension in ammonium sulphate; purchased Sigma Type III; host or cells: rabbit muscle
Protocol: (§1) Lactate dehydrogenase, LDH (Sigma Type III, rabbit muscle), purchased as a suspension in ammonium sulphate, was centrifuged, the supernatant was discarded, and the enzyme was suspended in 50 mM potassium phosphate pH 7.5. Alcohol dehydrogenase (Sigma, baker's yeast) was obtained in the lyophilized form and used without further purification. Enzymes were assayed using a Beckman spectrophotometer with a the rmostated cell compartment at 30°C.
(§2) In the experiments where thermal stress was imposed, enzymes were prepared at a concentration of 50 mg . ml^-1 in 20 mM potassium phosphate buffer, and the reaction mixtures were placed in Eppendorf tubes, incubated in a water-bath at 50°C for 10 minutes, cooled in an ice-bath and assayed immediately under standard conditions.
(§3) The effect of 1,1'-di-glycerol-phosphate on the thermostability of rabbit muscle LDH and baker's yeast ADH was compared to that of glycerol, a compound that is generally described as an enzyme protector. The percentage of residual activity in relation to pre-incubation activity, measured after 10 min of incubation at 50°C, is shown in Figure 5, for rabbit muscle LDH (A) and yeast ADH (B).
The effect of the concentration of 1,1'-di-glycerol-phosphate on the thermal stability of LDH was also monitored, and the results obtained after 10 min incubation at 50°C are shown in Figure 6. […]

[3] = biological target: T3, yeast alcohol dehydrogenase (ADH) (Saccharomyces cerevisiae, UniProt P00330); assay: Thermostability of alcohol dehydrogenase, residual activity after incubation at 50°C; type: biochemical, baker's yeast; settings: 10 min incubation at 50°C, without solute 33%
T3 construct: Alcohol dehydrogenase (Sigma, baker's yeast) was obtained in the lyophilized form and used without further purification; purchased Sigma; host or cells: baker's yeast
T3 sequence (P00330 2-348 limits assumed): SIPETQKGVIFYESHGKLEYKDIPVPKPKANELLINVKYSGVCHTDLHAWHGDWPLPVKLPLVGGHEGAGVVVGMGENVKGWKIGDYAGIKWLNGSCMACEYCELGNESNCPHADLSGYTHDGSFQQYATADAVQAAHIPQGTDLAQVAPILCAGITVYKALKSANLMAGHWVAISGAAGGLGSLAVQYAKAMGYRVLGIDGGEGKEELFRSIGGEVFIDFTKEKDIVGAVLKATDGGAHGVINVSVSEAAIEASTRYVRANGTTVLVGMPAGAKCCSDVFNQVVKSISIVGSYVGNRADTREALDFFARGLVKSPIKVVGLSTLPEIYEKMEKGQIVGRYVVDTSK
Protocol: as §1, §2, §3

T1 sequence (P00270 whole entry): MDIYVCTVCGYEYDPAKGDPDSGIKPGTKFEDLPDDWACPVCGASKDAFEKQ

Row | Compound | decrease in absorbance at 494 nm ([1]; 100 mM solute) [%] | residual activity in relation to pre-incubation activity [2] [%] | activity retained (of the initial activity) ([3]; 100 mM solute) [%] | decrease in absorbance at 494 nm ([1]; 200 mM solute) [%] | activity retained (of the initial activity) ([3]; 200 mM solute) [%]
1 | O=P(O)(OCC(O)CO)OCC(O)CO (stereo not shown) [1,1'-di-glycerol-phosphate] | 8.5 | 85 | 88 |  | 
2 | OCC(O)CO [glycerol] |  | 37 |  | 61 | 31
3 | O=P(O)(O)O [potassium phosphate] | 58 |  |  |  | 
